Laboratory results taken from patent US6410790B1, “3-amin3-arylpropan-1-ol compounds, their preparation and use” (priority 1999, dated 2002).

Assays:
[1] = test system: benzothiazepine binding site of the L-type calcium channel; assay: Diltiazem binding, L calcium channel; design: species or system rat; details: 10 μM, percentage inhibition, [3H]-cis-(+)-diltiazem 5 nM, rat cerebral cortex membranes
Protocol: Binding Investigations in the L Calcium Channel
Benzothiazepine Binding Site (Diltiazem Binding)
The biological membrane material was isolated from the rat cerebral cortex. [^3H]-cis-(+)-diltiazem (5 nM in the assay) was used as ligand. The material was incubated for 20 minutes at 25° C. The radioactivity that is measured in the presence of (±)-diltiazem (10^−6 M in the assay) is defined as non-specific binding. After completion of incubation the non-bound fraction of the radioactive ligand is separated by means of a filtration process using Whatman Glasfiber GF/B membranes. The membranes are washed and the radioactivity is then measured using a β-counter. The method is based on the details published by Schoemaker and Langer (H. Schoemaker and S. Z. Langer (1985) Eur. J. Pharmacol. 111, 273-277).
(§1) For this purpose IC50 values are obtained, which can be converted to inhibitor constants (Ki) according to the “Cheng-Prusoff equation” (Y. C. Clieng and W. H. Prusoff (1973) Biochem. Pharmacol. 22, 3099-3108). The IC50 values were obtained by means of the computer program “Figure P” (version 6.0, Biosoft, Cambridge, England). Km values were calculated according to Lineweaver and Burk (H. Lineweaver and D. Burk (1934) J. Am. Chem. Soc. 56, 658-666). The “Ligand” computer program (version 4, Biosoft, England) was used to obtain Ken values.

[2] = test system: phenylquinone-induced writhing reaction; assay: phenylquinone-induced writhing test in mice; assay type: in vivo; details: male NMRI mice, phenylquinone i.p. 10 minutes later; for inhibition in vivo at 10 mg/kg: Mus musculus, iv, 10 min, 10 mg/kg intravenously
Protocol: Analgesic Effect in the Writhing Test in Mice
The analgesic effect was investigated in the phenylquinone-induced writhing test in mice (as modified by I. C. Hendershot and J. Forsaith (1959) J. Pharmacol. Exp. Ther. 125, 237-240). Male NMRI mice weighing 25 to 30 g were used for the test. Groups of 10 animals each received by intraperitoineal application, for each substance dose, 0.3 ml/mouse of a 0.02% aqueous solution of phenylquinone (phenylbenzoquinone, Sigma Company, Deisenhofen; solution prepared with addition of 5% of ethanol and kept in a water bath at 45° C.) 10 minutes after intravenous administration of the test substances. The animals were placed individually in observation cages. The number of pain-induced stretching movements (so-called writhing reactions=straightening of the body together with stretching of the rear extremities) was measured by means of a push-button counter 5 to 20 minutes after administration of the phenylquinone. Animals that had received only physiological saline solution served as controls. All substances were tested in the standard dose of 10 mg/kg. The percentage inhibition (% inhibition) of the writhing reaction produced by a substance was calculated according to the following formula: [formula]

[3] = test system: binding site 2 of the sodium channel; assay: BTX binding, sodium channel; details: 10 μM, percentage inhibition, [3H]-batrachotoxin A20 α-benzoate 10 nM, rat cerebral cortex synaptosomes
Protocol: Binding Investigations in the Sodium Channel
Binding Site 2 (BTX Binding)
The binding site 2 of the sodium channel is the so-called batrachotoxin (BTX) binding site. [^3H]-batrachlotoxin A20 α-benzoate (10 nM in the assay) was used as ligand. These ion channel particles (synaptosomes) were concentrated from rat cerebral cortex according to the procedure of Gray and Whittaker (E. G. Gray and V. P. Whittaker (1962) J. Anat. 76, 79-88). The radioactivity that is measured in the presence of veratridine (0.3 mM in the assay) is defined as non-specific binding. The material was incubated at 37° C. for 120 minutes. The assay conditions are carried out according to the protocol published by Pauwels, Leysen and Laduron (P. J. Pauwels, J. E. Leysen and P. M. Laduron (1986) Eur. J. Pharmacol. 124, 291-298).
(N=3, i.e. mean values±SEM from 3 independent series of experiments that were carried out in the form of triple parallel experiments).
as §1

NA transporter = target: T1, NA transporter (Rattus norvegicus, UniProt Q63380); assay: synaptosomal noradrenaline uptake inhibition (NA uptake inhibition); assay type: biochemical; details: for inhibition at 1 µM: read-out: NA Uptake Inhibition at 1 μM, 1 μM in the assay, synaptosomes from rat hypothalamus
T1 construct: synaptosomes are isolated fresh from rat brains; from tissue; host or cells: rat hypothalamus synaptosomes (P2 fraction)
Protocol: In order to carry out these in vitro studies, synaptosomes are isolated fresh from rat brains. In each case a so-called “P2” fraction is used, which is prepared according to the protocol of Gray and Whittaker (E. G. Gray and V. P. Whittaker (1962) J. Anat. 76, 79-88).
(in each case N=4, i.e. mean values±SEM from 4 independent series of experiments that were carried out in the form of triple parallel experiments).
as §1

T1 sequence (Q63380 1-617): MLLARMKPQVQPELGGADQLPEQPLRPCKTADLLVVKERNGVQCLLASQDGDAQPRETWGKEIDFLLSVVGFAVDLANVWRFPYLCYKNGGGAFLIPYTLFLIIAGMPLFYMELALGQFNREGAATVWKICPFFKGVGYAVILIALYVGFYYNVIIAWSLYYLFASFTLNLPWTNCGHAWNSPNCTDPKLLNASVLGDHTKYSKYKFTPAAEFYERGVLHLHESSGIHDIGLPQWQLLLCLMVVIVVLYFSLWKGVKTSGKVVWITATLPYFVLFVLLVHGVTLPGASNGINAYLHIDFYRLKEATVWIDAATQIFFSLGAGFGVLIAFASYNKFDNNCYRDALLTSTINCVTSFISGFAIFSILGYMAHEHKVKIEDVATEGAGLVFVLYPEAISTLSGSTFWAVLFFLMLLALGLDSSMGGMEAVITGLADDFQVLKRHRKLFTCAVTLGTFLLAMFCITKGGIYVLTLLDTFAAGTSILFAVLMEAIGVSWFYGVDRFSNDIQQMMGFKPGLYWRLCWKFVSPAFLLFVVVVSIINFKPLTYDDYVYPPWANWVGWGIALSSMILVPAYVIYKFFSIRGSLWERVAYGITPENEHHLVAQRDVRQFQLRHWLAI

Q: What does the source list for CN(C)C(c1ccc(C#N)cc1)C1CCCCC1(O)c1ccc(C(F)(F)F)cc1.Cl (centres unmarked) [Example 65, 4-{dimethylamino-[2-hydroxy-2-(4-trifluoromethylphenyl)cyclohexyl]methyl}benzonitrile, hydrochloride]?
A: Diltiazem Binding at 10 μM [1]: 72%; inhibition in vivo at 10 mg/kg [2]: 76%; BTX Binding at 10 μM [3]: 78%; inhibition at 1 µM (NA transporter): 0%

Q: Which results are given for COc1cccc(CC2(O)CCCCC2C(c2ccccc2)N(C)C)c1.Cl (centres unmarked) [Example 13, 2-(dimethylaminophenylmethyl)-1-(3-methoxybenzyl)cyclohexanol, hydrochloride]?
A: Diltiazem Binding at 10 μM [1]: 88%; inhibition in vivo at 10 mg/kg [2]: 100%; BTX Binding at 10 μM [3]: 94%; inhibition at 1 µM (NA transporter): 95%

Q: Which results are given for CN(C)C(c1ccc(F)cc1)C1CCCCC1(O)Cc1ccccc1.Cl (centres unmarked) [Example 41, 1-benzyl-2-[dimethylamino-(4-fluorophenyl)methyl]cyclohexanol, hydrochloride]?
A: Diltiazem Binding at 10 μM [1]: 87%; inhibition in vivo at 10 mg/kg [2]: 88%; BTX Binding at 10 μM [3]: 94%; inhibition at 1 µM (NA transporter): 100%

Q: What does the source list for CN(C)C(c1ccc(Br)cc1)C1CCCCC1(O)Cc1ccccc1.Cl (centres unmarked) [Example 61, 1-benzyl-2-[(4-bromophenyl)dimethylaminomethyl]cyclohexanol, hydrochloride]?
A: Diltiazem Binding at 10 μM [1]: 89%; inhibition in vivo at 10 mg/kg [2]: 90%; BTX Binding at 10 μM [3]: 98%; inhibition at 1 µM (NA transporter): 100%

Q: With CN(C)C(c1ccccc1)C1CCCCC1(O)Cc1ccc(F)cc1.Cl (centres unmarked) [Example 25, 2-(dimethylaminophenylmethyl)-1-(4-fluorobenzyl)cyclohexanol, hydrochloride] as the molecule, how does the “Diltiazem Binding at 10 μM” value [1] read?
A: 85%

Q: And the inhibition in vivo at 10 mg/kg [2]?
A: 100%

Q: What about the “BTX Binding at 10 μM” value [3] of the same molecule?
A: 91%

Q: And the inhibition at 1 µM (NA transporter)?
A: 98%

Q: Which “Diltiazem Binding at 10 μM” value [1] does the source give for CN(C)C(c1ccccc1)C1CCCCC1(O)Cc1cc(F)ccc1F.Cl (centres unmarked) [Example 54, 1-(2,5-difluorobenzyl)-2-(dimethylaminophenylmethyl)cyclohexanol, hydrochloride] here?
A: 76%

Q: And the inhibition in vivo at 10 mg/kg [2]?
A: 98%

Q: What about the “BTX Binding at 10 μM” value [3] of the same molecule?
A: 98%

Q: What about the inhibition at 1 µM (NA transporter) of the same molecule?
A: 96%

Q: With CCC(O)(Cc1ccc(C(C)(C)C)cc1)C(C)C(c1ccccc1)N(C)C.Cl (centres unmarked) [Example 80] as the molecule, how does the “Diltiazem Binding at 10 μM” value [1] read?
A: 100%

Q: What about the “% Inhibition of the writhing reaction at 10 mg/kg intravenously” value [2] of the same molecule?
A: 61%

Q: What about the “BTX Binding at 10 μM” value [3] of the same molecule?
A: 100%

Q: And the “NA Uptake Inhibition at 1 μM” value (NA transporter; 1 μM in the assay, synaptosomes from rat hypothalamus)?
A: 18%

Q: Which “Diltiazem Binding at 10 μM” value [1] does the source give for CN(C)C(c1ccccc1)C1CCCCC1(O)C1CCCCC1.Cl (centres unmarked) [Example 48, 2-(dimethylaminophenylmethyl)bicyclohexyl-1-ol, hydrochloride] here?
A: 86%

Q: What about the inhibition in vivo at 10 mg/kg [2] of the same molecule?
A: 94%

Q: And the “BTX Binding at 10 μM” value [3]?
A: 96%

Q: What about the inhibition at 1 µM (NA transporter) of the same molecule?
A: 29%

Q: What does the source list for CN(C)C(c1ccc(Cl)c(Cl)c1)C1CCCCC1(O)CCc1ccccc1.Cl (centres unmarked) [Example 40, 2-[(3,4-dichlorophenyl)dimethylaminomethyl]-1-phenethylcyclohexanol, hydrochloride]?
A: Diltiazem Binding at 10 μM [1]: 86%; inhibition in vivo at 10 mg/kg [2]: 72%; BTX Binding at 10 μM [3]: 98%; inhibition at 1 µM (NA transporter): 58%

Q: With CN(C)C(c1ccccc1)C1CCCCC1(O)Cc1ccccc1F.Cl (centres unmarked) [Example 24, 2-(dimethylaminophenylmethyl)-1-(2-fluorobenzyl)cyclohexanol, hydrochloride] as the molecule, how does the “Diltiazem Binding at 10 μM” value [1] read?
A: 93%

Q: What about the inhibition in vivo at 10 mg/kg [2] of the same molecule?
A: 97%

Q: What about the “BTX Binding at 10 μM” value [3] of the same molecule?
A: 92%

Q: And the inhibition at 1 µM (NA transporter)?
A: 98%

Q: How did the “Diltiazem Binding at 10 μM” value [1] turn out when CN(C)C(c1ccccc1)C1CCCCC1(O)Cc1c(F)cccc1Cl.Cl (centres unmarked) [Example 56, 1-(2-chloro-6-fluorobenzyl)-2-(dimethylaminophenylmethyl)cyclohexanol, hydrochloride] was run?
A: 88%

Q: And the inhibition in vivo at 10 mg/kg [2]?
A: 94%

Q: And the “BTX Binding at 10 μM” value [3]?
A: 99%

Q: And the inhibition at 1 µM (NA transporter)?
A: 92%

Q: Which “Diltiazem Binding at 10 μM” value [1] does the source give for CN(C)C(c1ccc(Cl)cc1)C1CCCCC1(O)Cc1cccc(C(F)(F)F)c1.Cl (centres unmarked) [Example 63, 2-[(4-chlorophenyl)dimethylaminomethyl]-1-(3-trifluoromethylbenzyl)cyclohexanol, hydrochloride] here?
A: 95%

Q: What about the inhibition in vivo at 10 mg/kg [2] of the same molecule?
A: 86%

Q: What about the “BTX Binding at 10 μM” value [3] of the same molecule?
A: 99%

Q: And the inhibition at 1 µM (NA transporter)?
A: 94%

Q: Which “Diltiazem Binding at 10 μM” value [1] does the source give for CN(C)C(c1ccccc1)C1CCCCC1(O)Cc1ccc(Cl)cc1Cl.Cl (centres unmarked) [Example 33, 1-(2,4-dichlorobenzyl)-2-(dimethylaminophenylmethyl)cyclohexanol, hydrochloride] here?
A: 86%

Q: What about the inhibition in vivo at 10 mg/kg [2] of the same molecule?
A: 84%

Q: And the “BTX Binding at 10 μM” value [3]?
A: 98%

Q: What about the inhibition at 1 µM (NA transporter) of the same molecule?
A: 83%

Q: How did the “Diltiazem Binding at 10 μM” value [1] turn out when CN(C)C(c1ccc(Cl)cc1)C1CCCCC1(O)Cc1ccccc1.Cl (centres unmarked) [Example 58, 1-benzyl-2-[(4-chlorophenyl)dimethylaminomethyl]cyclohexanol, hydrochloride] was run?
A: 80%

Q: And the inhibition in vivo at 10 mg/kg [2]?
A: 98%

Q: What about the “BTX Binding at 10 μM” value [3] of the same molecule?
A: 100%

Q: And the inhibition at 1 µM (NA transporter)?
A: 0%

Q: With CN(C)C(c1ccccc1)C1CCCCC1(O)CCCc1ccccc1.Cl (centres unmarked) [Example 68, 2-(dimethylaminophenylmethyl)-1-(3-phenylpropyl)cyclohexanol, hydrochloride] as the molecule, how does the “Diltiazem Binding at 10 μM” value [1] read?
A: 88%

Q: What about the inhibition in vivo at 10 mg/kg [2] of the same molecule?
A: 55%

Q: What about the “BTX Binding at 10 μM” value [3] of the same molecule?
A: 98%

Q: And the inhibition at 1 µM (NA transporter)?
A: 49%

Q: How did the “Diltiazem Binding at 10 μM” value [1] turn out when CN(C)C(c1ccc(F)cc1)C1CCCCC1(O)Cc1cccc(C(F)(F)F)c1.Cl (centres unmarked) [Example 47, 2-[dimethylamino-(4-fluorophenyl)methyl]-1-(3-trifluoromethylbenzyl)cyclohexanol, hydrochloride] was run?
A: 84%

Q: And the inhibition in vivo at 10 mg/kg [2]?
A: 89%

Q: What about the “BTX Binding at 10 μM” value [3] of the same molecule?
A: 100%

Q: And the inhibition at 1 µM (NA transporter)?
A: 100%

Q: What does the source list for COc1ccc(OC)c(C2(O)CCCCC2C(c2ccccc2)N(C)C)c1.Cl (centres unmarked) [Example 26, 1-(2,5-dimethoxyphenyl)-2-(dimethylaminophenylmethyl)cyclohexanol, hydrochloride]?
A: Diltiazem Binding at 10 μM [1]: 87%; inhibition in vivo at 10 mg/kg [2]: 94%; BTX Binding at 10 μM [3]: 85%; inhibition at 1 µM (NA transporter): 5%
